Laboratory results reported in US20230322815A1, “NOVEL COMPOUNDS AND THERAPEUTIC USES THEREOF” (University of Huddersfield, priority 2020, published 2023).

Assays:
[1] = test system: H460 tumors; experiment: Chick embryo chorioallantoic membrane (CAM) assay, in ovo efficacy; type: in vivo, human tumor cells on chick embryo CAM; conditions: for doses giving statistically significant regression of tumor growth (mean tumor weight at E18) / doses giving reduction of tumor growth comparable to SoC: L2Zn3 54, 108, 216 μM, L2Cu3 42, 84, 168 μM; for doses giving statistically significant regression of tumor growth (mean tumor weight at E18): 100 μl on tumor graft at E11, E13, E15, E17; for doses giving reduction of tumor growth comparable to SoC: SoC paclitaxel; for H460 metastatic load in the lower CAM (qPCR for Alu sequences): all three tested doses
Procedure: FIG. 21. Activity of [L2Cu3]^6+ and [L2Zn3]^6+ against primary H460 tumors. The results presented represent the mean tumour weight±SEM following treatment at 3 different doses of [L2Cu3]^6+ and [L2Zn3]^6+: L2Zn3 [1]=54 μM, L2Zn3 [2]=108 μM, L2Zn3 [3]=216 μM; L2Cu3 [1]=42 μM, L2Cu3[2]=84 μM, L2Cu3[3]=168 μM. SoC paclitaxel. Statistical analysis by one way ANOVA (*): 0.05≥p value >0.01; (**): 0.01≥p value >0.001; (***): 0.001≥p value; (****): 0.0001≥p value. Number per experimental group n=10-13.
FIG. 22. Evaluation of the effects of [L2Cu3]^6+ and [L2Zn3]^6+ on primary H460 metastasis to the lower CAM. Relative ALU expression (relative to chicken GAPDH) as a quantitive marker of metastasis of human cells to the lower CAM. L2Zn3 [1]=54 μM, L2Zn3 [2]=108 μM, L2Zn3 [3]=216 μM; L2Cu3 [1]=42 μM, L2Cu3[2]=84 μM, L2Cu3[3]=168 μM. SoC paclitaxel. Relative expression ±SEM. Statistical analysis by one way ANOVA (*): 0.05≥p value >0.01; (**): 0.01≥p value >0.001; (***): 0.001≥p value; (****): 0.0001≥p value. Number per experimental group n=7-8.
[L2Cu3]^6+ and [L2Zn3]^6+ were evaluated at three different doses for in ovo anti-cancer activity, toxicity and anti-metastatic activity against tumors initiated from three different human cancer cell line models (H460, HT29, HCT116), in the chick embryo chorioallantoic membrane (CAM) assay.
Each compound was provided to the contract research organisation (CRO) Inovotion (La Tronche, France) conducting the in ovo study, as a powder pre-weighed in single vials (2 equivalents of ligand, 3 equivalents of metal; and stored at room temperature). Before use, this was then dissolved in DMSO to 50 mM to generate a stock solution and further freshly diluted in RPM11640 or McCoys aqueous cell culture media for administration.
A standard of care (SoC) drug for the particular tumour type was tested concurrently as a comparative control for in vivo efficacy and toxicity evaluation. A solvent control served as a negative control for both SoC and experimental compounds.
10^6 tumor cells (H460, HT29 or HCT116) were grafted onto the upper chorioallantoic membrane (CAM) of the developing chick embryo on embryonic day 9 (E9). Access to the upper CAM was through a small hole drilled through the eggshell of fertilized White Leghorn eggs (into the air sac) on E9 (15 eggs per experimental group).
100 μl of freshly prepared experimental compound, vehicle control or standard-of-care (SoC) drug at their working concentrations were pipetted onto the tumor graft at E11, E13, E15 and E17. On day E18, the upper CAM (with tumor) was removed, washed by PBS buffer and then directly transferred in PFA (fixation for 48 hrs). After that, tumors were carefully cut away from normal CAM tissue and weighed.
On day E18, a 1 cm^2 portion of the lower CAM was collected (n=8 per group), stored at −20° C. and later processed to extract DNA. Samples were analysed for human genomic DNA (qPCR for Alu sequences) as a quantitative marker of tumor metastasis to the lower CAM.

[2] = test system: HCT116 p53^−/− cancer cells; experiment: Autophagy (CYTO-ID staining, confocal); type: cell-based, human; conditions: 3.125 μM, 40 h
Procedure: FIG. 17. The effects of [L2Cu3]^6+, [L2Zn3]^6+ and [L2Mn3]^6+ on cellular vacuole formation and autophagy in the HCT116 p53^−/− cancer cells. Representative confocal images are shown of HCT116 p53^−/− cancer cells following 40 h treatment with vehicle control or 3.125 μM [L2Cu3]^6+, [L2Zn3]^6+, or [L2Mn3]^6+.
Autophagy studies: The effects of 3.125 μM [L2Cu3]^6+, [L2Zn3]^6+ and [L2Mn3]^6+ treatments (40 h) on the induction of cellular vacuoles and autophagy in the HCT116 p53^−/−, HCT116 p53^+/+ and ARPE19 cells are presented in FIGS. 17-19 with representative cell images shown. […] In the ARPE19 cells, levels of autophagy were low with all treatments and similar to basal levels in control-treated cells (FIG. 19).

[3] = Phosphatase activity: hydrolysis of 4-nitrophenyl phosphate; conditions: following mixing
From the text: Only [L2Zn3(PO4)]^3+ was observed, coupled with a rapid yellowing of the solution due to the formation of 4-nitrophenolate.
The rate of substrate hydrolysis is also dependent upon the metal used in the self-assembly process.

[4] = Dephosphorylation of phosphorylated amino acid (31P NMR); conditions: 37° C.
Procedure: (§1) FIG. 6. Phosphatase activity of [L2Zn3]^6+. ^31P NMR spectra using different substrates including PhOPO3 (spectra A to D), serine phosphate (spectra E to H), threonine phosphate (spectra I to L) and tyrosine phosphate (spectra M to P). Specific details for each ^31P NMR spectra are as follows: Spectra A, E, I and M represent substrate alone (44 hrs incubated @ 37° C.); Spectra B, F, J and N represents [L2Zn3]^6+ plus substrate (t=0 min); Spectra C, G, K and O represents [L2Zn3]^6+ plus substrate incubated @ 37° C. for 19 hours; Spectra D, H, L and […] represents [L2Zn3]^6+ plus substrate incubated @ 37° C. for 44 hours. The ^31P NMR of [L2Zn3(PO4)]^3+ gives a signal at 8.6 ppm.
(§2) Given the importance of protein phosphorylation in inter- and intra-cellular signalling and to cell function, and its common dysregulation in cancers,^30, 31 it was next analysed whether the Zn^2+ complex could dephosphorylate the phosphorylated amino acids serine, threonine and tyrosine. […] Dephosphorylation of the amino acid threonine-OPO3^2− by the Zn^2+ complex was much slower however and after 48 hrs threonine-OPO3^2− was still the major species (FIG. 6, spectra I-L). Differences in reactivity towards different substrates can be attributed to both steric and electronic effects. […]

[5] = as above; conditions: 37° C.; remark: listed apart in the source
Procedure: as §1, §2

[Cu+2].[Cu+2].[Cu+2].c1ccc(-c2csc(NCCN(CCNc3nc(-c4ccccn4)cs3)CCNc3nc(-c4ccccn4)cs3)n2)nc1.c1ccc(-c2csc(NCCN(CCNc3nc(-c4ccccn4)cs3)CCNc3nc(-c4ccccn4)cs3)n2)nc1 [[L2Cu3]^6+]
doses giving statistically significant regression of tumor growth (mean tumor weight at E18) [1]: the two highest tested doses
doses giving reduction of tumor growth comparable to SoC [1]: the highest dose
H460 metastatic load in the lower CAM (qPCR for Alu sequences) [1]: no statistically significant metastatic regression
induction of autophagy [2]: no or little autophagy

[Zn+2].[Zn+2].[Zn+2].c1ccc(-c2csc(NCCN(CCNc3nc(-c4ccccn4)cs3)CCNc3nc(-c4ccccn4)cs3)n2)nc1.c1ccc(-c2csc(NCCN(CCNc3nc(-c4ccccn4)cs3)CCNc3nc(-c4ccccn4)cs3)n2)nc1 [[L2Zn3]^6+]
doses giving statistically significant regression of tumor growth (mean tumor weight at E18) [1]: all three tested doses
doses giving reduction of tumor growth comparable to SoC [1]: all three tested doses
H460 metastatic load in the lower CAM (qPCR for Alu sequences) [1]: Statistically significant decreases
hydrolysis of 4-nitrophenyl phosphate by 31P NMR [3]: almost immediate hydrolysis
time to completion of dephosphorylation [4]: 48 h
time to completion of dephosphorylation [5]: 48 h
rate of dephosphorylation ([5]; after 48 hrs threonine-OPO3^2− still the major species): much slower
